Reference: ChEMBL document CHEMBL5385932, “Highly Concentrated Linear Guanidine Amides from the Marine Sipunculid Phascolosoma granulatum” (J Nat Prod, 2024)
Activity calls are given as the source filed them. No cut-off for these calls is given here.

Tests used:
HepG2 = assay: Cytotoxicity against human HepG2 cells assessed as effect on cell viability at 20 ug/ml by MTT assay; assay type: functional, cell-based; settings: dose 20.0 µg/ml
Nakaseomyces glabratus = assay: Antifungal activity against Candida glabrata ATCC2001 assessed as effect on fungal growth at 64 ug/ml; assay type: functional, organism-based; settings: dose 64.0 µg/ml
Staphylococcus aureus = assay: Antibacterial activity against methicillin-susceptible Staphylococcus aureus ATCC29213 assessed as effect on bacterial growth at 64 ug/ml; assay type: functional, organism-based; settings: dose 64.0 µg/ml
Pichia kudriavzevii = assay: Antifungal activity against Candida krusei ATCC6258 assessed as effect on fungal growth at 64 ug/ml; assay type: functional, organism-based; settings: dose 64.0 µg/ml
MIA PaCa-2 = assay: Cytotoxicity against human MIA PaCa-2 cells assessed as effect on cell viability at 20 ug/ml by MTT assay; assay type: functional, cell-based; settings: dose 20.0 µg/ml
Candida parapsilosis = assay: Antifungal activity against Candida parapsilosis ATCC22019 assessed as effect on fungal growth at 64 ug/ml; assay type: functional, organism-based; settings: dose 64.0 µg/ml
Artemia salina = assay: Toxicity in brine shrimp assessed as lethality at 500 uM measured after 24 to 48 hrs by microscopy; assay type: organism-based; settings: in vivo, time 24-48 hrs
Candida albicans = assay: Antifungal activity against Candida albicans ATCC64124 assessed as effect on fungal growth at 64 ug/ml; assay type: functional, organism-based; settings: dose 64.0 µg/ml
Candida tropicalis = assay: Antifungal activity against Candida tropicalis ATCC750 assessed as effect on fungal growth at 64 ug/ml; assay type: functional, organism-based; settings: dose 64.0 µg/ml
Aspergillus fumigatus = assay: Antifungal activity against Aspergillus fumigatus ATCC46645 assessed as effect on fungal growth at 64 ug/ml; assay type: functional, organism-based; settings: dose 64.0 µg/ml
A549 = assay: Cytotoxicity against human A549 cells assessed as effect on cell viability at 20 ug/ml by MTT assay; assay type: functional, cell-based; settings: dose 20.0 µg/ml
MCF7 = assay: Cytotoxicity against human MCF7 cells assessed as effect on cell viability at 20 ug/ml by MTT assay; assay type: functional, cell-based; settings: dose 20.0 µg/ml
A2058 = assay: Cytotoxicity against human A2058 cells assessed as effect on cell viability at 20 ug/ml by MTT assay; assay type: functional, cell-based; settings: dose 20.0 µg/ml
Escherichia coli = assay: Antibacterial activity against Escherichia coli ATCC25922 assessed as effect on bacterial growth at 64 ug/ml; assay type: functional, organism-based; settings: dose 64.0 µg/ml
Acinetobacter baumannii = assay: Antibacterial activity against Acinetobacter baumannii ATCC19606 assessed as effect on bacterial growth at 64 ug/ml; assay type: functional, organism-based; settings: dose 64.0 µg/ml

Row | Structure (SMILES) | Activity (HepG2) | Activity (Nakaseomyces glabratus) | Activity (Staphylococcus aureus) | Activity (Pichia kudriavzevii) | Activity (MIA PaCa-2) | Activity (Candida parapsilosis) | Activity (Artemia salina) | Activity (Candida albicans) | Activity (Candida tropicalis) | Activity (Aspergillus fumigatus) | Activity (A549) | Activity (MCF7) | Activity (A2058) | Activity (Escherichia coli) | Activity (Acinetobacter baumannii)
1 | C/C(=C/CCC(C)C)C(=O)NCCCCNC(=N)N.O=C(O)C(F)(F)F | inactive | inactive | inactive | inactive | inactive | inactive | Non-Toxic | inactive | inactive | inactive | inactive | inactive | inactive | inactive | inactive
2 | CC(C)C[C@H](O)CC/C=C\CNC(=O)CCNC(=N)N.O=C(O)C(F)(F)F | inactive |  |  |  | inactive |  | Non-Toxic |  |  |  | inactive | inactive | inactive |  | 
3 | CC(C)CC[C@@H](C)C(=O)NCCCCNC(=N)N.O=C(O)C(F)(F)F | inactive | inactive | inactive | inactive | inactive | inactive | Non-Toxic | inactive | inactive | inactive | inactive | inactive | inactive | inactive | inactive
4 | CC(C)CC(=O)N(C)CCCCNC(=N)N.O=C(O)C(F)(F)F | inactive |  |  |  | inactive |  | Non-Toxic |  |  |  | inactive | inactive | inactive |  | 
5 | CC(C)CC[C@@H](C)C(=O)N(C)CCCCNC(=N)N.O=C(O)C(F)(F)F | inactive | inactive | inactive | inactive | inactive | inactive | Non-Toxic | inactive | inactive | inactive | inactive | inactive | inactive | inactive | inactive
6 | CC(C)CC[C@@H](C)C(=O)NCCCNC(=N)N.O=C(O)C(F)(F)F | inactive | inactive | inactive | inactive | inactive | inactive | Non-Toxic | inactive | inactive | inactive | inactive | inactive | inactive | inactive | inactive
